How the values were obtained:
tryptase enzyme = target: T1, tryptase enzyme (Homo sapiens, UniProt P20231); experiment: Tryptase enzyme inhibition (cleavage of tosyl-gly-pro-lys-pNA, absorbance at 405 nm); assay type: biochemical; conditions: 2 h at 37° C.; relative to controls
T1 construct: purchased Millipore Inc., Westbury, Mass
Experimental: A. Tryptase Enzyme Inhibition
Tryptase activity was determined by monitoring the production of chromophore p-nitroaniline (pNA) generated by the cleavage of tosyl-gly-pro-lys-pNA by the tryptase enzyme according to the manufacturer's protocol (Millipore Inc., Westbury, Mass.). In a 96-well format, 10 μL of tryptase was added to 10 μL of sample, followed by 20 μL of tosyl-gly-pro-lys-pNA and 160 μL of 1× reaction buffer and incubated for 2 h at 37° C. After the incubation, absorbance at 405 nm was measured in each well using a Tecan M200 microplate reader.

[1] = Pharmacokinetic analysis: serum and urine by DART TOF-MS after a 100 mg lozenge; assay type: in vivo, human; conditions: humans
Experimental: Five healthy consenting female adults ranging in age from 23 to 57 were took diets free of flavonoids and any NSAIDs. A certified individual collected blood samples at several time intervals between 0 and 480 min after compounds of the present invention were ingested in a mixture. Immediately after the time zero blood samples were collected, a single 100 mg dose of the composition was administered as a lozenge. Blood samples were handled with approved protocols and precautions, centrifuged to remove cells and the serum fraction was collected and frozen. Blood was not treated with heparin to avoid any analytical interference. Urine samples were collected from the same five subjects on a time course (0 to 8 h). The cells were removed from the blood samples by centrifugation and the serum was collected. Serum samples were prepared for DART TOF-MS analysis by extraction with an equal volume of neat ethanol (USP) to minimize background of proteins, peptides, and polysaccharides present in serum. The ethanol extract was centrifuged for 10 min at 4° C., the supernatant was removed, concentrated to 200 μL volume, and 50 μL of an internal standard was added. Urine samples were not treated and used directly for DART TOF-MS. DART TOF-MS analyses were conducted as described above.

[2] = in a mixture, slow-dissolve lozenge

T1 sequence (P20231 31-275): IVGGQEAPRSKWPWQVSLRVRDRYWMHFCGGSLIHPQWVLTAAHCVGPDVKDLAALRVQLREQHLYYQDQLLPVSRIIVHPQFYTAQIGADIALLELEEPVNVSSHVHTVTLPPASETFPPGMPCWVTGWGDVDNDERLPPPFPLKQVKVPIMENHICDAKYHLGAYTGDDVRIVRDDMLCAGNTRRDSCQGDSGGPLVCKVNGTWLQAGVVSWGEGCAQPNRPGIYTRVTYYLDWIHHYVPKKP

- IC50 (tryptase enzyme): 493 µM
- Time to appearance in urine [1, 2]: ≤ 1 h
- Time to first appearance in bloodstream (serum) [1, 2]: ≤ 10 min
- Time up to which present in the blood post-ingestion [1, 2]: up to 360 min
- Time up to which present in urine post-ingestion [1, 2]: up to 8 h
- Detection in blood at 480 min after ingestion ([1]; lozenge, 480 min): not detected
SMILES: CCCCCN(c1ccc(N)cc1)c1ccc(S)cc1.Cl [III, 4-[(4-Amino-phenyl)-pentyl-amino]benzenethiol hydrochloride salt]

Reference: patent publication US20100113608A1, “Tryptase Enzyme Inhibiting Aminothiophenols” (priority 2008, published 2010)
